Results taken from PMC6576746, “Rational discovery of dual-indication multi-target PDE/Kinase inhibitor for precision anti-cancer therapy using structural systems pharmacology” (PLoS Computational Biology, 2019).

What was measured:
Experiment in all cases: biochemical
Set-up in all cases: DiscoverX KinomeScan competition binding assay across human kinases; per cent of control at 10 and 100 uM
TLK1 = TLK1 (Homo sapiens, UniProt Q9UKI8); settings: competition binding, % of control; read-out: Percent Control (100 uM Levosimendan)
Procedure, shortened: (§1)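 KinomeScan competition binding was run across a human kinase panel at 10 μM and 100 μM levosimendan. Results are %control = (test − positive control)/(negative control − positive control) × 100.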

ASK2 = molecular target: T1, ASK2 (Homo sapiens, UniProt O95382); settings: competition binding, % of control; read-out: Percent Control (100 uM Levosimendan)
T1 construct: gene MAP3K6
Procedure, shortened: as §1

SgK110 = molecular target: T2, SgK110 (Homo sapiens, UniProt P0C264); settings: competition binding, % of control; read-out: Percent Control (100 uM Levosimendan)
T2 construct: gene SBK3
Procedure, shortened: as §1

BIKE = molecular target: T3, BIKE (Homo sapiens, UniProt Q9NSY1); settings: competition binding, % of control
T3 construct: gene BMP2K
Procedure, shortened: as §1

JNK3 = molecular target: T4, JNK3 (Homo sapiens, UniProt P53779); settings: competition binding, % of control; read-out: Percent Control (100 uM Levosimendan)
T4 construct: gene MAPK10
Procedure, shortened: as §1

RET = RET (Homo sapiens, UniProt P07949); settings: competition binding, % of control; read-out: Percent Control (100 uM Levosimendan)
Procedure, shortened: as §1

[1] = molecular target: T5, JAK3(JH1domain-catalytic) (Homo sapiens, UniProt P52333); settings: competition binding, % of control; read-out: Percent Control (100 uM Levosimendan)
T5 construct: JH1domain-catalytic
Procedure, shortened: as §1

CDC2L2 = molecular target: T6, CDC2L2 (Homo sapiens, UniProt Q9UQ88); settings: competition binding, % of control; read-out: Percent Control (100 uM Levosimendan)
T6 construct: gene CDK11A
Procedure, shortened: as §1

[2] = molecular target: T7, ABL1(T315I)-phosphorylated (Homo sapiens, UniProt P00519, T315I); settings: competition binding, % of control; read-out: Percent Control (100 uM Levosimendan)
T7 construct: phosphorylated
Procedure, shortened: as §1

VRK2 = VRK2 (Homo sapiens, UniProt Q86Y07); settings: competition binding, % of control; read-out: Percent Control (100 uM Levosimendan)
Procedure, shortened: as §1

PIM3 = PIM3 (Homo sapiens, UniProt Q86V86); settings: competition binding, % of control
Procedure, shortened: as §1

PRKD1 = PRKD1 (Homo sapiens, UniProt Q15139); settings: competition binding, % of control; read-out: Percent Control (100 uM Levosimendan)
Procedure, shortened: as §1

TLK2 = TLK2 (Homo sapiens, UniProt Q86UE8); settings: competition binding, % of control; read-out: Percent Control (100 uM Levosimendan)
Procedure, shortened: as §1

PIK3CA(E542K) = PIK3CA(E542K) (Homo sapiens, UniProt P42336, E542K); settings: competition binding, % of control; read-out: Percent Control (100 uM Levosimendan)
Procedure, shortened: as §1

CSNK1E = CSNK1E (Homo sapiens, UniProt P49674); settings: competition binding, % of control; read-out: Percent Control (100 uM Levosimendan)
Procedure, shortened: as §1

[3] = molecular target: T8, ABL1(Y253F)-phosphorylated (Homo sapiens, UniProt P00519, Y253F); settings: competition binding, % of control; read-out: Percent Control (100 uM Levosimendan)
T8 construct: phosphorylated
Procedure, shortened: as §1

EPHB1 = EPHB1 (Homo sapiens, UniProt P54762); settings: competition binding, % of control; read-out: Percent Control (100 uM Levosimendan)
Procedure, shortened: as §1

PRP4 = molecular target: T9, PRP4 (Homo sapiens, UniProt Q13523); settings: competition binding, % of control; read-out: Percent Control (100 uM Levosimendan)
T9 construct: gene PRPF4B
Procedure, shortened: as §1

GAK = GAK (Homo sapiens, UniProt O14976); settings: competition binding, % of control
Procedure, shortened: as §1

[4] = read-out: Percent Control (10 uM Levosimendan)
[5] = read-out: Percent Control (100 uM Levosimendan)

T3 sequence (Q9NSY1 whole entry): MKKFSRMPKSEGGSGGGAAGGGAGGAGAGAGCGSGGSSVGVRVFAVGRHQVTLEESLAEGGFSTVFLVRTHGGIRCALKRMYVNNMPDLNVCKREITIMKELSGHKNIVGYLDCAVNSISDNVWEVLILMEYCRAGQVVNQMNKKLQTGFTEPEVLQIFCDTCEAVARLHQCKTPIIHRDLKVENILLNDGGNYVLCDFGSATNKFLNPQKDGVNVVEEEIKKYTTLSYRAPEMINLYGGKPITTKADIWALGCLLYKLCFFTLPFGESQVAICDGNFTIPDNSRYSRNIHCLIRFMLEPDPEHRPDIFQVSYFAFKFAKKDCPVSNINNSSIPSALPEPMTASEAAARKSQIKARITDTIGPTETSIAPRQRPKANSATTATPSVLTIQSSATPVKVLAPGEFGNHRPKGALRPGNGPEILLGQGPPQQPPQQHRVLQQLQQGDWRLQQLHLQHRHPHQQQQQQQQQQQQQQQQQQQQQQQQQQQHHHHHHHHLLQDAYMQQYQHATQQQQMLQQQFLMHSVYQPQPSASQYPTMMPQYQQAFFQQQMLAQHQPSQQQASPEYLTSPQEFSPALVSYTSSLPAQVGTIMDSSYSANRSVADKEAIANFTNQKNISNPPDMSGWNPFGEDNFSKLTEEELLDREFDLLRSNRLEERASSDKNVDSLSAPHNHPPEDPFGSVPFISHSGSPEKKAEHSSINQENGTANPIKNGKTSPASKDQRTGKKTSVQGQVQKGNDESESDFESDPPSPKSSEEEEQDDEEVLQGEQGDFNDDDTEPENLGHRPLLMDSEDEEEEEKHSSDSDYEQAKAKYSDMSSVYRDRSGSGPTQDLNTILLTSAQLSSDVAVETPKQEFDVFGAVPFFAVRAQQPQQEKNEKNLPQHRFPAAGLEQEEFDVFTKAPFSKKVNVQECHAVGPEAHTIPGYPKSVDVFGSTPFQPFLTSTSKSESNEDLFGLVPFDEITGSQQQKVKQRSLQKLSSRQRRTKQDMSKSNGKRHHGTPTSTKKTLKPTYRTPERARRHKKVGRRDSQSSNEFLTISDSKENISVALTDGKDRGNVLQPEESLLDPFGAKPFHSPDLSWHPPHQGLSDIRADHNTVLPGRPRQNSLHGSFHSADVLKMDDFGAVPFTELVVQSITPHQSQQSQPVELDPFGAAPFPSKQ
Chain of GAK (O14976 whole entry): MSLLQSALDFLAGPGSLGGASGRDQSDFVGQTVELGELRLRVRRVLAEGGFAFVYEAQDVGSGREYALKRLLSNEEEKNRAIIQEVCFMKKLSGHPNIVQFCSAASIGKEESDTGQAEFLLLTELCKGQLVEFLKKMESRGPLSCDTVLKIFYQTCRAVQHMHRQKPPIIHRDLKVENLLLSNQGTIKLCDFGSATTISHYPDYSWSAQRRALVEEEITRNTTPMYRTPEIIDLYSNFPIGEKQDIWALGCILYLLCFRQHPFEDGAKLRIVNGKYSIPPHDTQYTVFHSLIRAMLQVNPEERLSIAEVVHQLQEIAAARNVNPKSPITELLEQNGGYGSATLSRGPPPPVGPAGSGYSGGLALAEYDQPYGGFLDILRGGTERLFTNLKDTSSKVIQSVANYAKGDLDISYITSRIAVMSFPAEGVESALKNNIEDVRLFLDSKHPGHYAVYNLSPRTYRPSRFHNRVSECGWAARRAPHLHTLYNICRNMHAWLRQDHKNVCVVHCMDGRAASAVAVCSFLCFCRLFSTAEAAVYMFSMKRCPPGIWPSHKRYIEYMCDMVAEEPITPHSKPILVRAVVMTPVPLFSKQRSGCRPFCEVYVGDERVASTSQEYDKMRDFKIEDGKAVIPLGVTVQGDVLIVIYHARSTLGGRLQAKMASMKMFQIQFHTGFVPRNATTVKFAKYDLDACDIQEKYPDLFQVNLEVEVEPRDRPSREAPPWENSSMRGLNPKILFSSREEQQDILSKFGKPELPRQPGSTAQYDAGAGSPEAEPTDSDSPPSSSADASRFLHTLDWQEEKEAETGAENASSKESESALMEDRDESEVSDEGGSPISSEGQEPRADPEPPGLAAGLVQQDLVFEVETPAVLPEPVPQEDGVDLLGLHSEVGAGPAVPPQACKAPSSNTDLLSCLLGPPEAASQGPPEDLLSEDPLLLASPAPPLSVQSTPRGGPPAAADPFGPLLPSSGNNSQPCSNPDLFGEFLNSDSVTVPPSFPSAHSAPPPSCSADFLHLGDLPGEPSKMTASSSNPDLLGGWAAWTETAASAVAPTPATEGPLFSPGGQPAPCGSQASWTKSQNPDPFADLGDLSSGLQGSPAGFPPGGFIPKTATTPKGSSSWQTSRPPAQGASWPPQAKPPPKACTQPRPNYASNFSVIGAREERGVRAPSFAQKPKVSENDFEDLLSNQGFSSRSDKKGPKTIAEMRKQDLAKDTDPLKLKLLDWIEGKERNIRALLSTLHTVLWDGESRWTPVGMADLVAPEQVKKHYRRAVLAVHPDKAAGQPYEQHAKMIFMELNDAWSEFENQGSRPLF
T2 sequence (P0C264 whole entry): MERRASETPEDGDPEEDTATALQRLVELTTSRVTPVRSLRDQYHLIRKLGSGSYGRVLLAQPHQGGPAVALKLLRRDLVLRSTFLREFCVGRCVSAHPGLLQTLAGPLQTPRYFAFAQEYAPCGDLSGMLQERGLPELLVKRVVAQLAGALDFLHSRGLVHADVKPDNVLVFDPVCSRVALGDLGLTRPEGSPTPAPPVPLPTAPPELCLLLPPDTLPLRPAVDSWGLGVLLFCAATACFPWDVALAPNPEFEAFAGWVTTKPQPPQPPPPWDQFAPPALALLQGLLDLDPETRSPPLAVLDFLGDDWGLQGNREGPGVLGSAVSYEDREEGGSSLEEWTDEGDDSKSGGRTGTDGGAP
T1 sequence (O95382 whole entry): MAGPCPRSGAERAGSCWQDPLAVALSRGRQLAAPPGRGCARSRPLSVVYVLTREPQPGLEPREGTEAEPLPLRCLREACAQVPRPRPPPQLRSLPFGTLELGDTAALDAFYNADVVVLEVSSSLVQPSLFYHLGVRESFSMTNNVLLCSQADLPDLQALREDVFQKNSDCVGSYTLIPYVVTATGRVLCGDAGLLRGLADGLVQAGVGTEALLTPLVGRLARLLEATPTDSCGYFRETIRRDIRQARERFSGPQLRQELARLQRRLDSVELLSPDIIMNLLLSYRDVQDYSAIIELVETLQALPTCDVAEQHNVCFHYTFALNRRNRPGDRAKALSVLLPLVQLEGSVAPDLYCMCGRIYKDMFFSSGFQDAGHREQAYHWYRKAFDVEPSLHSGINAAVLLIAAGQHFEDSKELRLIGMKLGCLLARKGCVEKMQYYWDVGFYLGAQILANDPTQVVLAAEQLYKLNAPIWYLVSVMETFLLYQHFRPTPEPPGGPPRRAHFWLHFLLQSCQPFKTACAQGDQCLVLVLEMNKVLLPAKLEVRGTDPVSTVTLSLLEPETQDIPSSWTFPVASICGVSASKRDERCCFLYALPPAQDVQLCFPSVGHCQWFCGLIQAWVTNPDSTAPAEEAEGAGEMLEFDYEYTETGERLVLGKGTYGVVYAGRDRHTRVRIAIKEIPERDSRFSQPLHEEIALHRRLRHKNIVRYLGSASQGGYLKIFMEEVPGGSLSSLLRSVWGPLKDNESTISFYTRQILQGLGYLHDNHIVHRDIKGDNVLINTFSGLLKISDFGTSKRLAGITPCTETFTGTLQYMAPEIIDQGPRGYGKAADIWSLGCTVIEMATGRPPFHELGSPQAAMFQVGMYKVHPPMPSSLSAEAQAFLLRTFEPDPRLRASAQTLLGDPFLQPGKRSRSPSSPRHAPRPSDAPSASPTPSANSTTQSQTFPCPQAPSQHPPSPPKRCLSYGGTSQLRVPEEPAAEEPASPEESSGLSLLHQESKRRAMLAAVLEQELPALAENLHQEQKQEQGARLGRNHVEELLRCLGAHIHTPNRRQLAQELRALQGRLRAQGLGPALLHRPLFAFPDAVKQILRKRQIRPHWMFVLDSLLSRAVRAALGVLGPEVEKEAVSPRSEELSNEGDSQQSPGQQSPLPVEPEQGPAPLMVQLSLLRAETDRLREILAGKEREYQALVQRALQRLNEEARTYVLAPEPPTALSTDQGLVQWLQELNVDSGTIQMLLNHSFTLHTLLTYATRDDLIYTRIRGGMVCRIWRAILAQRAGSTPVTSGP
Chain of CSNK1E (P49674 whole entry): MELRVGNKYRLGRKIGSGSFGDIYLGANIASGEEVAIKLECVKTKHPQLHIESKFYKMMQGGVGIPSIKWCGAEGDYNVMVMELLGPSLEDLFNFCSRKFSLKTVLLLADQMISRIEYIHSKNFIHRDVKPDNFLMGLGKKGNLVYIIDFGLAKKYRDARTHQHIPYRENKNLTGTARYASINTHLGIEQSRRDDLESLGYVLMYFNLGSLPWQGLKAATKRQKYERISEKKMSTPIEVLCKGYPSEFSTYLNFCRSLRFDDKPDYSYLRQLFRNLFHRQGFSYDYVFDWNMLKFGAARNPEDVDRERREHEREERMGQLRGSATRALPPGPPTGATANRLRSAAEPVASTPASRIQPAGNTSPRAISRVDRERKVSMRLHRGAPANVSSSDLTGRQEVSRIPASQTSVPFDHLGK

- remaining binding at 100 µM (TLK1): 100%
- remaining binding at 100 µM (ASK2): 80%
- remaining binding at 100 µM (SgK110): 100%
- remaining binding at 10 µM (BIKE; [4]): 47%
- remaining binding at 100 µM (BIKE; [5]): 2.2%
- remaining binding at 100 µM (JNK3): 99%
- remaining binding at 100 µM (RET): 88%
- remaining binding at 100 µM [1]: 75%
- remaining binding at 100 µM (CDC2L2): 100%
- remaining binding at 100 µM [2]: 64%
- remaining binding at 100 µM (VRK2): 69%
- remaining binding at 10 µM (PIM3; [4]): 75%
- remaining binding at 100 µM (PIM3; [5]): 17%
- remaining binding at 100 µM (PRKD1): 96%
- remaining binding at 100 µM (TLK2): 97%
- remaining binding at 100 µM (PIK3CA(E542K)): 100%
- remaining binding at 100 µM (CSNK1E): 63%
- remaining binding at 100 µM [3]: 87%
- remaining binding at 100 µM (EPHB1): 96%
- remaining binding at 100 µM (PRP4): 100%
- remaining binding at 10 µM (GAK; [4]): 24%
- remaining binding at 100 µM (GAK; [5]): 16%
SMILES: C[C@@H]1CC(=O)NN=C1c1ccc(NN=C(C#N)C#N)cc1 [levosimendan]
